In brackets after ≈: the same amount, converted by molar mass.
Columns and labels:
human melanomas = conditions: cited from earlier work
[1] = test system: cultured human melanoma cells; conditions: cited from earlier work
[2] = Solubility in individual solvents; assay type: physicochemical
Description: (§1) The solubility of betulinic acid and its derivatives was determined in various individual solvents. Based on the solubility of betulinic acid in these particular vehicles, it was then attempted to enhance the solubility of betulinic acid by mixing different solvents according to the principles of co-solvency (Spiegel and Noseworthy, 1963, Yalkowsky and Roseman, 1981). Different solvent systems were evaluated to arrive at a suitable relevant stock composition. The stock composition would then be diluted with a final solvent or intravenous solution to yield a working formulation of 0.001-40 mg/ml.
(§2) Several methods and compositions were evaluated for their ability to solubilize betulinic acid and its derivatives in water miscible, physiologically acceptable vehicles. The solvents that were tried included DMA, dimethylsulfoxide (DMSO), absolute ethanol, glycerin, polyethylene glycols (PEGs) and propylene glycol, in addition to the aqueous diluting fluids normal saline, and 2-25% dextrose in solution.

[3] = Clarity / precipitation on dilution of the composition with aqueous diluting fluid; assay type: physicochemical
Description: as §1, §2
(§3) In the following examples one or more co-solvents with a solubilizers or a combination of (solubilizers) was added to keep the drug in solution after diluting with an aqueous intravenous diluting fluid.

[4] = Amount of drug dissolved in solvent/co-solvent/solubilizer compositions; assay type: physicochemical
Description: as §1, §2
A concentrated solution of betulinic acid or its derivatives was prepared by dissolving 50-200 mg of betulinic acid or its derivatives in 1 ml of DMA. The above stock solution was diluted with PEG (polyethylene glycol, MW 300) in a ratio of 1:4 to a concentration of 10-40 mg/ml.
as §3

[5] = Example 6: DMA 50% v/v, Tween 80 50% w/v

## C=C(C)[C@@H]1CC[C@]2(C(=O)O)CC[C@]3(C)[C@H](CC[C@@H]4[C@@]5(C)CC[C@H](O)C(C)(C)[C@@H]5CC[C@]43C)[C@@H]12 [betulinic acid]
Human melanomas; athymic mice carrying human melanomas
  tumor growth: completely inhibited
Human melanomas; mouse, in vivo
  toxicity: without toxicity
[1]
  cytotoxicity: melanoma-specific cytotoxic agent
[2]; Absolute ethanol, organic solvent or mixture, Absolute ethanol, varies depending upon the derivative, read-out: SOLUBILITY
  solubility: 3000 to 10000 µg/mL (≈ 6.57 to 21.9 mM)
[2]; Dimethylsulfoxide (DMSO), organic solvent or mixture, Dimethylsulfoxide (DMSO), read-out: SOLUBILITY
  solubility: ≤ 100000 µg/mL
[2]; Glycerin
  solubility: insoluble
[2]; N,N-dimethylacetamide (DMA), organic solvent or mixture, N,N Dimethylacetamide (DMA), read-out: SOLUBILITY
  solubility: ≤ 250000 µg/mL
[2]; Polyethylene glycols (MW 200, 300, 400), organic solvent or mixture, Polyethylene glycols (MW 200, 300, 400), read-out: SOLUBILITY
  solubility: < 5000 µg/mL
[2]; Propylene glycol, organic solvent or mixture, Propylene glycol, read-out: SOLUBILITY
  solubility: < 5000 µg/mL
[2]; Water
  solubility: insoluble
[2]; most of the aqueous solvents
  solubility: insoluble
[3]; Example 3: 50 mg drug, DMA 20% v/v, PEG 300 80% v/v, even at concentrations as low as 0.001-0.1 mg/ml
  behaviour on dilution with the aqueous diluting fluid: immediate precipitation
[3]; Example 3: 200 mg drug, DMA 20% v/v, PEG 300 80% v/v
  behaviour on dilution with the aqueous diluting fluid: immediately precipitated out
[3]; Example 4: 50 mg drug, DMA 50% v/v, PEG 300 50% v/v, diluted with 2-25% dextrose or normal saline
  behaviour on dilution with aqueous diluting fluid: gave a viscous solution which gels over time although there are no signs of any precipitation of drug
[3]; [5]
  behaviour on dilution with aqueous diluting fluid: immediately precipitated out
[3]; Example 7: Absolute ethanol 20-40% v/v, Tween 80 60-80% w/v, diluted with aqueous diluting fluid to 0.3-1.4 mg/ml
  time the drug solution remained clear on dilution: ≤ 3 h
[3]; Example 8: Absolute ethanol 65% v/v, Tween 80 5% w/v, PEG 300 30% v/v, diluted to 0.08-0.4 mg/ml
  behaviour on dilution with aqueous diluting fluid: remained clear
[3]; Example 9: Absolute ethanol 35% v/v, Tween 80 15% w/v, PEG 300 50% v/v, diluted to 0.08 to 0.4 mg/ml
  behaviour on dilution with aqueous diluting fluid: remained clear
[3]; Example 9 composition, diluted outside the range 0.08 to 0.4 mg/ml
  behaviour on dilution with aqueous diluting fluid: immediate precipitation
[3]; Example 16: DMA 20-50% v/v, PEG 300 20-40% v/v, Tween 80 5-30% w/v, diluted with aqueous diluting fluid to 0.1-10 mg/ml
  time the composition remained clear without any precipitation on dilution: more than 5 days
[3]; Examples 10 and 11 compositions, at a lower concentration of 0.012-2 mg/ml
  behaviour on dilution with an aqueous diluting fluid: remains clear
[3]; Examples 12 and 13 compositions containing MYRJ 52, diluted to 0.1-1.0 mg/ml
  behaviour on dilution with aqueous diluting fluid: precipitated out in a few hours
[3]; Examples 14 and 15 compositions, only at lower dilutions (0.001-1 mg/ml)
  behaviour on dilution with the aqueous diluting fluid: remained soluble
[4]; [5]
  drug concentration the composition could dissolve: ≤ 20000 µg/mL
[4]; Example 7: Absolute ethanol 20-40% v/v, Tween 80 60-80% w/v
  drug concentration the composition could dissolve: ≤ 20000 µg/mL
[4]; Example 8: Absolute ethanol 65% v/v, Tween 80 5% w/v, PEG 300 30% v/v
  drug concentration the composition could dissolve: up to 6 mg/ml
[4]; Example 9: Absolute ethanol 35% v/v, Tween 80 15% w/v, PEG 300 50% v/v
  drug concentration the composition could dissolve: up to 4 mg/ml
[4]; Example 16: DMA 20-50% v/v, PEG 300 20-40% v/v, Tween 80 5-30% w/v
  drug concentration that could be dissolved in the compositions: Up to 22 mg/ml
[4]; Examples 12 and 13: DMA 20% v/v, MYRJ 52 20-30% w/v, Tween 20-50% w/v, with or without PEG 300 40% v/v
  drug concentration the compositions could dissolve: ≤ 20000 µg/mL
[4]; Examples 14 and 15: DMA 20% v/v, Tween 80 20% w/v, PEG 300 55-57% v/v, Poloxamer 407 3% w/v or Lecithin 5% w/v
  drug concentration the compositions could dissolve: 2000 to 15000 µg/mL
[4]; organic solvent or mixture, Examples 10 and 11: DMA 10-20% v/v, Propylene glycol 10-20% v/v, Absolute ethanol 30-35% v/v, Tween 80 35-40% w/v, read-out: concentration range soluble in the system
  solubility: 2000 to 15000 µg/mL

Reference: patent publication US6656970B2, “Method and compositions for solubilization of pentacyclic triterpenes” (Dabur Research Foundation, priority 2000, dated 2003)
